Assay [1] deals with DLD1 WT cells. As to the kind of experiment: 7-day cell viability assay (CellTiter-Glo), DLD1 parental (WT). The note with it: Homo sapiens, DLD-1, 168 h, 7-day CellTiter-Glo, n=2. It counts as cell-based, human. Background: In ATP-based viability assays light output follows the ATP content of the culture.
The subject of assay [2] is DLD1 BRCA2 (−/−) cells. Description: 7-day cell viability assay (CellTiter-Glo), DLD1 BRCA2 (−/−). It counts as cell-based, human. As to conditions: Homo sapiens, DLD-1, 168 h, 7-day CellTiter-Glo, n=2, read-out: Viability IC50 (uM) DLD1 BRCA2 null. The method in brief:
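7-day growth assay in DLD1 cells with or without BRCA2; seeding densities chosen to keep log-linear growth. Compound: 10 uM top, 3-fold, 9 points. Endpoint: CTG ATP luminescence at RT.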

Each structure is given as a SMILES string.

Regarding `COc1cnc(Cl)cc1-c1cc(C)ncc1C(=O)Nc1nc2c(s1)CN(C(=O)c1ccc(C#N)c(C(F)F)n1)C2` [Example 1015, 2′-chloro-N-(5-(5-cyano-6-(difluoromethyl)picolinoyl)-5,6-dibydro-4H-pyrrolo[3,4-d]thiazol-2-yl)-5′-methoxy-6-methyl-[4,4′-bipyridine]-3-carboxamide], the IC50 (in general, the concentration needed to halve the response being measured) in assay [1] was no less than 10 µM; in assay [2], 0.001 to 0.1 µM.

For `COc1cnc(C(F)F)cc1-c1cc(C)ncc1C(=O)Nc1nc2c(s1)CN(C(=O)c1ccc(C(F)(F)F)nc1OC)C2` [Example 1016, 2′-(difluoromethyl)-5′-methoxy-N-(5-(2-methoxy-6-(trifluoromethyl)nicotinoyl)-5,6-dihydro-4H-pyrrolo[3,4-d]thiazol-2-yl)-6-methyl-[4,4′-bipyridine]-3-carboxamide], the figures for the IC50 in assay [1] and in assay [2] were no less than 10 µM and 0.001 to 0.1 µM, respectively.

As for `COc1cnc(Cl)cc1-c1cc(C)ncc1C(=O)Nc1nc2c(s1)CN(C(=O)c1ccc(OC(F)(F)F)nc1C)C2` [Example 1018, 2′-chloro-5′-methoxy-6-methyl-N-(5-(2-methyl-6-(trifluoromethoxy)nicotinoyl)-5,6-dihydro-4H-pyrrolo[3,4-d]thiazol-2-yl)-[4,4′-bipyridine]-3-carboxamide], the values for the half-maximal inhibitory concentration (IC50) in assay [1] and in assay [2] were no less than 10 µM and 0.001 to 0.1 µM, respectively.

Take `COc1cnc(Cl)cc1-c1cc(C)ncc1C(=O)Nc1nc2c(s1)CN(C(=O)c1c(C)cc(C(F)(F)F)nc1OC)C2` [Example 1019, 2′-chloro-5′-methoxy-N-(5-(2-methoxy-4-methyl-6-(trifluoromethyl)nicotinoyl)-5,6-dihydro-4H-pyrrolo[3,4-d]thiazol-2-yl)-6-methyl-[4,4′-bipyridine]-3-carboxamide]: the IC50 was no less than 10 µM in assay [1] and 0.001 to 0.1 µM in assay [2].

For `COc1cnc(Cl)cc1-c1cc(C)ncc1C(=O)Nc1nc2c(s1)CN(C(=O)c1nc(C)c(C(F)F)c(C)c1Cl)C2` [Example 1020, 2′-chloro-N-(5-(3-chloro-5-(difluoromethyl)-4,6-dimethylpicolinoyl)-5,6-dihydro-4H-pyrrolo[3,4-d]thiazol-2-yl)-5′-methoxy-6-methyl-[4,4′-bipyridine]-3-carboxamide], the IC50 in assay [1] is no less than 10 µM; in assay [2] it was 0.001 to 0.1 µM.

Regarding `COc1cnc(Cl)cc1-c1cc(C)ncc1C(=O)Nc1nc2c(s1)CN(C(=O)c1nc(C(F)(F)F)c(C#N)cc1C)C2` [Example 1022, 2′-chloro-N-(5-(5-cyano-3-methyl-6-(trifluoromethyl)picolinoyl)-5,6-dihydro-4H-pyrrolo[3,4-d]thiazol-2-yl)-5′-methoxy-6-methyl-[4,4′-bipyridine]-3-carboxamide], the IC50 in assay [1] is no less than 10 µM; in assay [2] it was 0.001 to 0.1 µM.

Turning to `COc1cnc(Cl)c(F)c1-c1cc(C)ncc1C(=O)Nc1nc2c(s1)CN(C(=O)c1ccc(C(F)(F)F)nc1OC)C2` [Example 1023, 2′-chloro-3′-fluoro-5′-methoxy-N-(5-(2-methoxy-6-(trifluoromethyl)nicotinoyl)-5,6-dihydro-4H-pyrrolo[3,4-d]thiazol-2-yl)-6-methyl-[4,4′-bipyridine]-3-carboxamide], the values for the half-inhibitory concentration (IC50) in assay [1] and in assay [2] were no less than 10 µM and 0.001 to 0.1 µM, respectively.

In the case of `COc1nnc(C(F)F)cc1-c1cc(C)ncc1C(=O)Nc1nc2c(s1)CN(C(=O)c1nccc(C(F)(F)F)c1C)C2` [Example 1024, 4-(6-(difluoromethyl)-3-methoxypyridazin-4-yl)-6-methyl-N-(5-(3-methyl-4-(trifluoromethyl)picolinoyl)-5,6-dihydro-4H-pyrrolo[3,4-d]thiazol-2-yl)nicotinamide], the values for the IC50 in assay [1] and in assay [2] were no less than 10 µM and 0.001 to 0.1 µM, respectively.

For `COc1nc(C(F)(F)F)ccc1C(=O)N1Cc2nc(NC(=O)c3cnc(C)cc3-c3cc(C(F)F)nnc3OC)sc2C1` [Example 1025, 4-(6-(difluoromethyl)-3-methoxypyridazin-4-yl)-N-(5-(2-methoxy-6-(trifluoromethyl)nicotinoyl)-5,6-dihydro-4H-pyrrolo[3,4-d]thiazol-2-yl)-6-methylnicotinamide], the half-maximal inhibitory concentration (IC50) in assay [1] is no less than 10 µM; in assay [2], 0.001 to 0.1 µM.

For the compound `COc1nnc(C(F)F)cc1-c1cc(C)ncc1C(=O)Nc1nc2c(s1)CN(C(=O)c1nccc(C(F)(F)F)c1F)C2` [Example 1026, 4-(6-(difluoromethyl)-3-methoxypyridazin-4-yl)-N-(5-(3-fluoro-4-(trifluoromethyl)picolinoyl)-5,6-dihydro-4H-pyrrolo[3,4-d]thiazol-2-yl)-6-methylnicotinamide], the IC50 in assay [1] was no less than 10 µM; in assay [2], 0.001 to 0.1 µM.

As to `COc1cnc(Cl)cc1-c1cc(C)ncc1C(=O)Nc1nc2c(s1)CN(C(=O)c1nc(C)c(OC(F)F)cc1C)C2` [Example 1027, 2′-chloro-N-(5-(5-(difluoromethoxy)-3,6-dimethylpicolinoyl)-5,6-dihydro-4H-pyrrolo[3,4-d]thiazol-2-yl)-5′-methoxy-6-methyl-[4,4′-bipyridine]-3-carboxamide], the IC50 in assay [1] is no less than 10 µM; in assay [2], 0.001 to 0.1 µM.

Turning to `COc1cnc(Cl)cc1-c1cc(C)ncc1C(=O)Nc1nc2c(s1)CN(C(=O)c1nc(C)c(OC(F)(F)F)cc1C)C2` [Example 1028, 2′-chloro-N-(5-(3,6-dimethyl-5-(trifluoromethoxy)picolinoyl)-5,6-dihydro-4H-pyrrolo[3,4-d]thiazol-2-yl)-5′-methoxy-6-methyl-[4,4′-bipyridine]-3-carboxamide], the IC50 was no less than 10 µM in assay [1] and 0.001 to 0.1 µM in assay [2].

For `COc1cnc(C)c(F)c1-c1cc(C)ncc1C(=O)Nc1nc2c(s1)CN(C(=O)c1ccc(C(F)(F)F)nc1OC)C2` [Example 1029, 3′-fluoro-5′-methoxy-N-(5-(2-methoxy-6-(trifluoromethyl)nicotinoyl)-5,6-dihydro-4H-pyrrolo[3,4-d]thiazol-2-yl)-2′,6-dimethyl-[4,4′-bipyridine]-3-carboxamide], the IC50 was no less than 10 µM in assay [1] and 0.001 to 0.1 µM in assay [2].

As for `COc1cc(C)c(C(=O)N2Cc3nc(NC(=O)c4cnc(C)cc4-c4cc(Cl)ncc4OC)sc3C2)c(Cl)n1` [Example 1030, 2′-chloro-N-(5-(2-chloro-6-methoxy-4-methylnicotinoyl)-5,6-dihydro-4H-pyrrolo[3,4-d]thiazol-2-yl)-5′-methoxy-6-methyl-[4,4′-bipyridine]-3-carboxamide], the half-maximal inhibitory concentration (IC50) is no less than 10 µM in assay [1] and 0.001 to 0.1 µM in assay [2].

Take `COc1nc(C(F)(F)F)ccc1C(=O)N1Cc2nc(NC(=O)c3cnc(C)cc3-c3cc(C(F)F)cnc3OC)sc2C1` [Example 1032, 5-(difluoromethyl)-2-methoxy-N-(5-(2-methoxy-6-(trifluoromethyl)nicotinoyl)-5,6-dihydro-4H-pyrrolo[3,4-d]thiazol-2-yl)-6′-methyl-[3,4′-bipyridine]-3′-carboxamide]: the values for the IC50 in assay [1] and in assay [2] were no less than 10 µM and 0.001 to 0.1 µM, respectively.

For `COc1cnc(Cl)cc1-c1cc(C)ncc1C(=O)Nc1nc2c(s1)CN(C(=O)c1ccc(C(F)(F)F)nc1OC)C2C` (centres unmarked) [Example 1033, 2′-chloro-5′-methoxy-N-(5-(2-methoxy-6-(trifluoromethyl)nicotinoyl)-4-methyl-5,6-dihydro-4H-pyrrolo[3,4-d]thiazol-2-yl)-6-methyl-[4,4′-bipyridine]-3-carboxamide], the values for the IC50 in assay [1] and in assay [2] were no less than 10 µM and 0.001 to 0.1 µM, respectively.

Turning to `COc1ncc(Cl)cc1-c1cc(C)ncc1C(=O)Nc1nc2c(s1)CN(C(=O)c1nccc(C(F)(F)F)c1OC)C2` [Example 1034, 5-chloro-2-methoxy-N-(5-(3-methoxy-4-(trifluoromethyl)picolinoyl)-5,6-dihydro-4H-pyrrolo[3,4-d]thiazol-2-yl)-6′-methyl-[3,4′-bipyridine]-3′-carboxamide], the results for the IC50 in assay [1] and in assay [2] were no less than 10 µM and 0.001 to 0.1 µM, respectively.

Turning to `COc1ncc(Cl)cc1-c1cc(C)ncc1C(=O)Nc1nc2c(s1)CN(C(=O)c1ccc(C(F)(F)F)c(OC)n1)C2` [Example 1035, 5-chloro-2-methoxy-N-(5-(6-methoxy-5-(trifluoromethyl)picolinoyl)-5,6-dihydro-4H-pyrrolo[3,4-d]thiazol-2-yl)-6′-methyl-[3,4′-bipyridine]-3′-carboxamide], the IC50 in assay [1] is no less than 10 µM; in assay [2], 0.001 to 0.1 µM.

Regarding `COc1ccc(C(=O)N2Cc3nc(NC(=O)c4cnc(C)cc4-c4cc(Cl)ncc4OC)sc3C2)c(F)n1` [Example 1038, 2′-chloro-N-(5-(2-fluoro-6-methoxynicotinoyl)-5,6-dihydro-4H-pyrrolo[3,4-d]thiazol-2-yl)-5′-methoxy-6-methyl-[4,4′-bipyridine]-3-carboxamide], the IC50 in assay [1] is no less than 10 µM; in assay [2] it was 0.1 to 0.25 µM.

As for `COc1cnc(Cl)cc1-c1cc(C)ncc1C(=O)Nc1nc2c(s1)CN(C(=O)c1ccc(OC(F)(F)F)nc1OC)C2` [Example 1039, 2′-chloro-5′-methoxy-N-(5-(2-methoxy-6-(trifluoromethoxy)nicotinoyl)-5,6-dihydro-4H-pyrrolo[3,4-d]thiazol-2-yl)-6-methyl-[4,4′-bipyridine]-3-carboxamide], the values for the IC50 in assay [1] and in assay [2] were no less than 10 µM and 0.001 to 0.1 µM, respectively.

On to `COc1ncc(Cl)cc1-c1cc(C)ncc1C(=O)Nc1nc2c(s1)CN(C(=O)c1nc(OC)c(C(F)(F)F)cc1C)C2` [Example 1044, 5-chloro-2-methoxy-N-(5-(6-methoxy-3-methyl-5-(trifluoromethyl)picolinoyl)-5,6-dihydro-4H-pyrrolo[3,4-d]thiazol-2-yl)-6′-methyl-[3,4′-bipyridine]-3′-carboxamide], for which the IC50 was no less than 10 µM in assay [1] and 0.001 to 0.1 µM in assay [2].

As to `COc1nc(C(F)(F)F)ccc1C(=O)N1Cc2nc(NC(=O)c3cnc(C)cc3-c3cc(C#N)cnc3OC)sc2C1` [Example 1048, 5-cyano-2-methoxy-N-(5-(2-methoxy-6-(trifluoromethyl)nicotinoyl)-5,6-dihydro-4H-pyrrolo[3,4-d]thiazol-2-yl)-6′-methyl-[3,4′-bipyridine]-3′-carboxamide], the IC50 in assay [1] is no less than 10 µM; in assay [2] it was 0.001 to 0.1 µM.

The values are drawn from patent US20250230171A1 (MOMA Therapeutics, Inc., priority 2023, published 2025).
